Assay results published in patent US9675592B2, “Methods and compositions for bacteria infections” (priority 2013, dated 2017).

Experiments:
[1] = target: cytoplasmic domain of VraS (VraS-C) (Staphylococcus aureus, UniProt Q99SZ7); experiment: biochemical; type: binding; conditions: for Kd / RUmax VraS: new run with His-tagged VraS; for Kd: NB = No Binding, read-out: KD VraS; for binding to VraS-C: SPR
VraR = VraR (Staphylococcus aureus, UniProt Q7A4R9); experiment: biochemical; type: binding; conditions: for Kd: NB = No Binding
Chain of VraR (Q7A4R9 whole entry): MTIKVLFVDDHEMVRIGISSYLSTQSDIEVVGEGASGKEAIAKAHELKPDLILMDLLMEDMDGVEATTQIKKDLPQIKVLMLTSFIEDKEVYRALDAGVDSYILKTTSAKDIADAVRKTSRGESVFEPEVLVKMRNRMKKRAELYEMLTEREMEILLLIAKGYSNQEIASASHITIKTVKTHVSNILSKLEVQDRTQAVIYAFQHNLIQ

[2] = target: PurC (unrelated protein, control) (Bacillus anthracis, UniProt Q81ZH5); type: binding; conditions: read-out: KD PurC (control)
Chain of PurC (unrelated protein, control) (Q81ZH5 whole entry, looked up): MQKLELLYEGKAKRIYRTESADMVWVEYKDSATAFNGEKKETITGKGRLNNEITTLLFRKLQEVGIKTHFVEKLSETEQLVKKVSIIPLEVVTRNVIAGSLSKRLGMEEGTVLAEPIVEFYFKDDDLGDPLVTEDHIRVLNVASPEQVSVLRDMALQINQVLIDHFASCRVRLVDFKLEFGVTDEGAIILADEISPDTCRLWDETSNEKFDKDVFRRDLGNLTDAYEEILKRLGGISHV

[3] = test system: test strain 923 pPvra-lux; experiment: Secondary screen / synergy confirmation of Top 40, relative growth with oxacillin; type: cell-based, Staphylococcus aureus; conditions: Top 40 library, compound at maximum non-GI conc
Method: In the secondary screen each microtiter plate contained either cells in TSB alone (16 replicates), cells with oxacillin (2 μg/mL, 31 replicates), or cells with test compound and oxacillin (2 μg/mL, 49 wells). Each compound was assayed in four separate biological replicates.
Synergy Confirmation of “Top 40”. […]

[4] = test system: vraSR promoter (Pvra-lux reporter in strain 923); type: cell-based, Staphylococcus aureus
Method: In the secondary screen each microtiter plate contained either cells in TSB alone (16 replicates), cells with oxacillin (2 μg/mL, 31 replicates), or cells with test compound and oxacillin (2 μg/mL, 49 wells). Each compound was assayed in four separate biological replicates. […]

[5] = test system: test strain (923 pPvra-lux); experiment: Growth inhibition by compound alone (maximum non-growth-inhibitory concentration); type: cell-based, Staphylococcus aureus; conditions: compound alone; maximum concentration where it did NOT inhibit growth
multiple strains of MRSA = experiment: MICs (minimal inhibitory concentrations) vs multiple strains of MRSA; type: cell-based, Staphylococcus aureus; conditions: compound at 4 mg/L
[6] = test system: test strain 923 pPvra-lux (USA300 MRSA); experiment: Primary screen, relative growth in presence of oxacillin; conditions: compound 10 μM with oxacillin 2 μg/mL, absorbance 24 h, <0.50 = dead cells = hit
[7] = test system: vraSR promoter (Pvra-lux reporter in strain 923); experiment: Primary screen, relative luminescence (vraSR expression); conditions: primary screen, compound 10 μM with oxacillin 2 μg/mL; <0.50 = vraSR repressed = hit

Chain of cytoplasmic domain of VraS (VraS-C) (Q99SZ7 70-347): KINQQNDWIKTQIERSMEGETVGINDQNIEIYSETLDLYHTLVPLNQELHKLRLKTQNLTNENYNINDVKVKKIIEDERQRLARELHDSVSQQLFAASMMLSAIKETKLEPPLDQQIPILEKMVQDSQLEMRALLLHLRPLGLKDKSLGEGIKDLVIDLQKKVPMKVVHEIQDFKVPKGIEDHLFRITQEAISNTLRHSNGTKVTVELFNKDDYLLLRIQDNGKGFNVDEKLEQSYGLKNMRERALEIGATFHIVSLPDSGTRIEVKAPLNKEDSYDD

SMILES | Kd [1] [µM] | Kd (VraR; His-tagged VraR) [µM] | Kd [2] [µM] | also measured
O=C(Nc1nnc(-c2ccc(Br)cc2)o1)c1sc2ccccc2c1Cl [F2518-0484] | > 100 | > 100 | > 100 | –
O=C(Nc1nnc(-c2cc(Cl)sc2Cl)o1)c1nc2ccccc2s1 [F1374-2739] | 69.6 ± 11.6 | 54.4 ± 12.2 | > 100 | binding to VraS-C [1]: bound; RUmax VraS [1]: 69.1 ± 6.2; RUmax VraR (VraR; His-tagged VraR): 80.3 ± 8.8; binding to VraR (VraR; SPR): bound
Cc1cc2c(C(C)C)c(O)c(O)c(C=O)c2c(O)c1-c1c(C)cc2c(C(C)C)c(O)c(O)c(C=O)c2c1O [Gos, Gossypol, reference compound] | > 100 | > 100 | – | –
Cc1ccc(C)c(-c2nnc(NC(=O)c3cc(Cl)sc3Cl)o2)c1 [F2518-0360] | > 100 | > 100 | > 100 | –
Cc1ccc(C)c(-c2nnc(NC(=O)c3ccccc3F)o2)c1 [F2518-0382] | > 100 | > 100 | > 100 | –
Cc1ccc(-c2nnc(NC(=O)c3ccccc3Cl)o2)c(C)c1 [F2518-0150] | > 100 | > 100 | > 100 | –
O=C(Nc1nnc(-c2ccc(F)cc2)o1)c1nc2ccccc2s1 [F1374-0138] | > 100 | > 100 | > 100 | –
O=C(Nc1nnc(-c2ccccc2Cl)o1)c1nc2ccccc2s1 [F1374-0033] | 19.6 ± 4.4 | > 100 | > 100 | binding to VraS-C [1]: bound; RUmax VraS [1]: 64.3 ± 5.4
CC(C)(C)c1csc(NC(=O)c2cccc(NS(=O)(=O)c3ccc(F)cc3)c2)n1 [F2619-0556] | – | – | – | RG Ox avg [3]: 0.01; RL Ox avg ([4]; Top 40 library, with oxacillin, compound at maximum non-GI conc): 0.28; vraSR repressing synergist ([4]; overall class from syn and rep): 1. confirmed; maximum non-GI conc [5]: 400 µg/mL; Ox MIC in presence of compound (multiple strains of MRSA; isolate 923, SCCmec IV, ST 8): <0.25 mg/L; Ox MIC in presence of compound (multiple strains of MRSA; isolate 1176, SCCmec II, ST 231): <0.5 mg/L; Ox MIC in presence of compound (multiple strains of MRSA; isolate 2169, SCCmec IV, ST 72): <0.25 mg/L; Ox MIC in presence of compound (multiple strains of MRSA; isolate 8004-01, SCCmec III, ST 239): <4 mg/L; Ox MIC in presence of compound (multiple strains of MRSA; isolate 8010-01, SCCmec IV, ST 8): <0.25 mg/L; Ox MIC in presence of compound (multiple strains of MRSA; isolate 8227-01, SCCmec IV, ST 87): <0.06 mg/L; Ox MIC in presence of compound (multiple strains of MRSA; isolate 11095, SCCmec II, ST 105): 128 mg/L; Ox MIC in presence of compound (multiple strains of MRSA; isolate 13113, SCCmec II, ST 5): <0.13 mg/L; Ox MIC in presence of compound (multiple strains of MRSA; isolate 13354, SCCmec IV, ST 5): <0.13 mg/L; Ox MIC in presence of compound (multiple strains of MRSA; isolate 14315, SCCmec IV, ST 1): <0.5 mg/L; Ox MIC in presence of compound (multiple strains of MRSA; isolate Q2461, SCCmec VT, ST 59): 1 mg/L; RG avg (relative growth) [6]: 0.25; RL avg (relative luminescence) [7]: 0.52
